Experimental data as given in patent US20250333419A1, “BICYCLIC COMPOUNDS AS INHIBITORS OF WRN” (Incyte Corporation, priority 2023, published 2025).

Key:
[1] = target: T1, WRN (Homo sapiens, UniProt Q14191); experiment: WRN Helicase activity assay (fluorescence DNA unwinding); assay type: biochemical; conditions: IC50, 1-hr pre-incubation with enzyme; geometric means of at least 2 independent replicates
T1 construct: A His-tagged construct of WRN (AA S2-S1235) was produced and used for the ATPase assay; His; made in house; host or cells: Sf9 insect cells (baculovirus)
T1 sequence (Q14191 2-1235): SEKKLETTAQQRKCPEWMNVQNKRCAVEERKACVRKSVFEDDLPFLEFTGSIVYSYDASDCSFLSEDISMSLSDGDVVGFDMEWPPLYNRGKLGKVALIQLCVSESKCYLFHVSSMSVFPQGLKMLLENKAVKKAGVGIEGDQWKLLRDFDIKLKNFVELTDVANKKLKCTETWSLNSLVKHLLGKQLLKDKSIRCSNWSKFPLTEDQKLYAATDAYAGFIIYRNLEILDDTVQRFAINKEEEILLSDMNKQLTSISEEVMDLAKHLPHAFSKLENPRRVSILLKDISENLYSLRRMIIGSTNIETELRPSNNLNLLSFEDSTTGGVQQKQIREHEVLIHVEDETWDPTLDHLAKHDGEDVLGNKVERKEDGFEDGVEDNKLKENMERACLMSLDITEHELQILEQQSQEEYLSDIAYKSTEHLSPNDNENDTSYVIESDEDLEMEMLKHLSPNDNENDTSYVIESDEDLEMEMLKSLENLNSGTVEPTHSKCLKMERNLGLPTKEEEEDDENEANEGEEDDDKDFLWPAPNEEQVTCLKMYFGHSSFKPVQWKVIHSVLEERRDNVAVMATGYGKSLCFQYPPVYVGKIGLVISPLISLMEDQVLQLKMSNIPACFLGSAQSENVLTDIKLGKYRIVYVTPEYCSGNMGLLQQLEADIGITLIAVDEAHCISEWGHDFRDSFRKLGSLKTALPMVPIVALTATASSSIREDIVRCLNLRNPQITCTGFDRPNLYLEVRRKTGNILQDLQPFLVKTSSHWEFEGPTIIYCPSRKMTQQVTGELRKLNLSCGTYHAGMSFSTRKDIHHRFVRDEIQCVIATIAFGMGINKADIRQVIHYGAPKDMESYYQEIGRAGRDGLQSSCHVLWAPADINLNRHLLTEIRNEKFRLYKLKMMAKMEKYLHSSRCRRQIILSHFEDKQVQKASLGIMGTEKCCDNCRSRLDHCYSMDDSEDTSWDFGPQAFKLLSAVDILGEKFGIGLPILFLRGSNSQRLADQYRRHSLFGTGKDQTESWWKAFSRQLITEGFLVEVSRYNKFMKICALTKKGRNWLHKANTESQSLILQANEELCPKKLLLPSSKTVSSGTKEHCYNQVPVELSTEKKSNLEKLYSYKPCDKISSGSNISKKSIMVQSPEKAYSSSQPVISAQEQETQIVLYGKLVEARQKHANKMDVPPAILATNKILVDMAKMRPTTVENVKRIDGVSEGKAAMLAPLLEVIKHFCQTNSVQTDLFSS
Method: Compounds of the examples were tested for WRN helicase activity. DNA encoding the target protein, 6×HIS-TEV-WRN-517-945, was produced, cloned and transfected as detailed in Example D. To determine the inhibitory properties of the compounds, a 384 wells plate-based Helicase assay was set up to measure the extent of DNA unwinding (Helicase) activity of WRN. The WRN Helicase assay was designed to measure increase in fluorescence signal using a fluorescence based, donor-quencher paired forked dsDNA oligomer substrate (custom synthesis from Sigma-Aldrich) prepared by annealing equal amounts of oligo GPat-1 ([BHQ2][…]) and oligo GPat-2 ([…][TAM]). Continuous measurement of fluorescent signal was used to optimize the buffer conditions, concentration of enzyme (WRN), concentration of substrates (ATP & dsDNA), and the linearity of the Helicase reaction. All solutions were prepared in the following assay buffer: 50 mM Tris-HCl, pH-7.5, 2 mM MgCl2, 50 mM NaCl, 1 mM EGTA, 0.01% P-20, 0.05% BSA, and 2 mM DTT prepared with nuclease free water.
A serial dilution (1:3 scheme) of the compounds was prepared in neat DMSO and 100 nL of the compounds was dispensed in the Greiner black low volume (Greiner #784076) 384 wells assay plate. An 1-hr pre-incubation of the compounds with enzyme was included. A His-tagged construct of WRN (AA S2-S1235) was produced and used for the ATPase assay. Maximum inhibition control wells were set up with the addition of only assay buffer, and no inhibition control wells were set up with neat DMSO without test compounds. The reaction was initiated by addition of 5 μL substrate mix (200 μM ultrapure ATP, and 50 nM dsDNA prepared in assay buffer) and incubated at 25° C. for 35 min. A typical Helicase reaction consists of 25 nM forked dsDNA, 100 μM ATP, and 1 nM WRN prepared in assay buffer. The WRN Helicase reaction was quenched by the addition of 5 μL ‘STOP’ solution containing 100 mM EDTA (final EDTA concentration 33.33 mM) prepared in assay buffer. The plates were read on BMG PHERAstar FSX using 540/590 module to measure an increase of fluorescence. Data analysis was carried out using the Genedata software following % of control normalization. Fitting parameters include dose response IC50, Hill slope (n), maximum inhibition (S∞), and minimum inhibition (S0). The reported IC50 values for compounds in this invention are the geometric means of at least 2 independent replicates.

[2] = target: T1, WRN; experiment: WRN ATPase activity assay (ADP-Glo); assay type: biochemical; conditions: IC50, 1-hr pre-incubation with enzyme; geometric means of at least 2 independent replicates
Method: Compounds of the Examples were tested for WRN ATPase activity. WRN ATPase activity catalyzes ATP hydrolysis to produce ADP and phosphate. DNA encoding the target protein, 6×HIS-TEV-WRN-517-945, was produced, cloned and transfected as detailed in Example D. The amount of ADP produced was measured using ADP-Glo™ Kinase Assay kit from Promega Corporation in a Greiner white regular volume 384 wells assay plate (Greiner #781075). Data was normalized to a standard curve generated using various ADP concentrations and the corresponding luminescent signal intensities at each concentration. The assay conditions were optimized for enzyme concentration (WRN), substrate concentrations (ATP & dsDNA), and the linearity of the ATPase reaction, in the following assay buffer: 50 mM Tris-HCl, pH-7.5, 2 mM MgCl2, 50 mM NaCl, 1 mM EGTA, 0.01% P-20, 0.05% BSA, and 2 mM DTT prepared with nuclease free water.
A serial dilution (1:3 scheme) of the compounds were prepared in neat DMSO, with 100 nL of the compounds dispensed in the 384 wells assay plate. An 1-hr pre-incubation of the compounds with enzyme was included. A His-tagged construct of WRN (AA S2-S1235) was produced and used for the ATPase assay. Maximum inhibition control wells were set up with the addition of only assay buffer, and no inhibition control wells were set up with neat DMSO without test compounds. The reaction was initiated by addition of 5 μL substrate mix (200 μM ultrapure ATP, and 50 nM dsDNA prepared in assay buffer) and incubated at 25° C. for 35 min. A forked dsDNA oligomer substrate was prepared by annealing equal amounts of oligo GPat-1 ([BHQ2][…]) and oligo GPat-2 ([…][TAM]) and was used as dsDNA substrate for WRN ATPase assay. A typical ATPase reaction consists of 25 nM forked dsDNA, 100 μM ATP, and 1 nM WRN prepared in assay buffer. The WRN ATPase reaction was stopped by the addition of 5 μL of ADP-Glo Reagent from ADP-Glo™ Kinase Assay kit and incubated for 40 min to deplete the unreacted ATP. Afterwards, 5 μL of Kinase Detection Reagent from the ADP-Glo™ Kinase Assay kit was added and incubated for 1 hr for the development of luminescence signal.
Luminesce signals were measured on BMG PHERAstar FSX using luminescence protocol. Data analysis was carried out using Genedata software following % of control normalization. Fitting parameters include dose response IC50, Hill slope (n), maximum inhibition (S∞), and minimum inhibition (S0). The reported IC50 values for compounds in this invention are the geometric means of at least 2 independent replicates.

IC50 [1]	IC50 [2]	Structure (SMILES)
< 0.1 µM	< 0.1 µM	C=CC(=O)Nc1ccccc1-c1c(CC)n(CC(=O)Nc2ccc(C(F)(F)F)cc2Cl)c2nc(C3=CCOCC3)nn2c1=O [Example 16, N-(2-(4-(2-((2-Chloro-4-(trifluoromethyl)phenyl)amino)-2-oxoethyl)-2-(3,6-dihydro-2H-pyran-4-yl)-5-ethyl-7-oxo-4,7-dihydro-[1,2,4]triazolo[1,5-a]pyrimidin-6-yl)phenyl)acrylamide]
< 0.1 µM	< 0.1 µM	C=CC(=O)Nc1ccccc1-c1c(CC)n(CC(=O)Nc2ccc(C(F)(F)F)cc2)c2nc(C3CC3)nn2c1=O [Example 17, N-(2-(2-Cyclopropyl-5-ethyl-7-oxo-4-(2-oxo-2-((4-(trifluoromethyl)phenyl)amino)ethyl)-4,7-dihydro-[1,2,4]triazolo[1,5-a]pyrimidin-6-yl)phenyl)acrylamide]
0.5 to 1 µM	0.5 to 1 µM	C=CC(=O)Nc1ccccc1-c1c(CC)n(CC(=O)Nc2ccc(C(F)(F)F)cc2)c2nc(C)nn2c1=O [Example 18, N-(2-(5-Ethyl-2-methyl-7-oxo-4-(2-oxo-2-((4-(trifluoromethyl)phenyl)amino)ethyl)-4,7-dihydro-[1,2,4]triazolo[1,5-a]pyrimidin-6-yl)phenyl)acrylamide]
0.1 to 0.5 µM	0.1 to 0.5 µM	C=CC(=O)Nc1ccccc1-c1c(CC)n(CC(=O)Nc2ccc(C(F)(F)F)cc2)c2nc(C3CCC3)nn2c1=O [Example 19, N-(2-(2-Cyclobutyl-5-ethyl-7-oxo-4-(2-oxo-2-((4-(trifluoromethyl)phenyl)amino)ethyl)-4,7-dihydro-[1,2,4]triazolo[1,5-a]pyrimidin-6-yl)phenyl)acrylamide]
0.1 to 0.5 µM	0.1 to 0.5 µM	C=CC(=O)Nc1ccccc1-c1c(CC)n(CC(=O)Nc2ccc(C(F)(F)F)cc2)c2nc(C3CCCCC3)nn2c1=O [Example 20, N-(2-(2-Cyclohexyl-5-ethyl-7-oxo-4-(2-oxo-2-((4-(trifluoromethyl)phenyl)amino)ethyl)-4,7-dihydro-[1,2,4]triazolo[1,5-a]pyrimidin-6-yl)phenyl)acrylamide]
0.1 to 0.5 µM	0.1 to 0.5 µM	C=CC(=O)Nc1ccccc1-c1c(CC)n(CC(=O)Nc2ccc(C(F)(F)F)cc2Cl)c2nc(C(C)C)nn2c1=O [Example 21, N-(2-(4-(2-((2-Chloro-4-(trifluoromethyl)phenyl)amino)-2-oxoethyl)-5-ethyl-2-isopropyl-7-oxo-4,7-dihydro-[1,2,4]triazolo[1,5-a]pyrimidin-6-yl)phenyl)acrylamide]
< 0.1 µM	< 0.1 µM	C=CC(=O)Nc1ccccc1-c1c(CC)n(CC(=O)Nc2ccc(C(F)(F)F)cc2)c2nc(-c3cccs3)nn2c1=O [Example 22, N-(2-(5-Ethyl-7-oxo-4-(2-oxo-2-((4-(trifluoromethyl)phenyl)amino)ethyl)-2-(thiophen-2-yl)-4,7-dihydro-[1,2,4]triazolo[1,5-a]pyrimidin-6-yl)phenyl)acrylamide]
0.5 to 1 µM	0.1 to 0.5 µM	C=CC(=O)Nc1ccccc1-c1c(CC)n(CC(=O)Nc2ccc(C(F)(F)F)cc2)c2nc(C3CCOCC3)nn2c1=O [Example 23, N-(2-(5-Ethyl-7-oxo-4-(2-oxo-2-((4-(trifluoromethyl)phenyl)amino)ethyl)-2-(tetrahydro-2H-pyran-4-yl)-4,7-dihydro-[1,2,4]triazolo[1,5-a]pyrimidin-6-yl)phenyl)acrylamide]
0.1 to 0.5 µM	0.1 to 0.5 µM	C=CC(=O)Nc1ccccc1-c1c(CC)n(CC(=O)Nc2ccc(C(F)(F)F)cc2)c2nc(C3CCNCC3)nn2c1=O [Example 24, N-(2-(5-Ethyl-7-oxo-4-(2-oxo-2-((4-(trifluoromethyl)phenyl)amino)ethyl)-2-(piperidin-4-yl)-4,7-dihydro-[1,2,4]triazolo[1,5-a]pyrimidin-6-yl)phenyl)acrylamide]
< 0.1 µM	< 0.1 µM	C=CC(=O)Nc1ccccc1-c1c(CC)n(CC(=O)Nc2ccc(C(F)(F)F)cc2)c2nc(C3CCN(C(=O)C=C)CC3)nn2c1=O [Example 25, N-(2-(2-(1-Acryloylpiperidin-4-yl)-5-ethyl-7-oxo-4-(2-oxo-2-((4-(trifluoromethyl)phenyl)amino)ethyl)-4,7-dihydro-[1,2,4]triazolo[1,5-a]pyrimidin-6-yl)phenyl)acrylamide]
